In patent US20250136559A1, “SMO MODULATOR COMPOUNDS” (OMASS THERAPEUTICS LIMITED, priority 2022, published 2025):

Legend:
Assay type in all cases: cell-based
mouse SMO^W535L = target: T1, mouse SMO^W535L (Mus musculus, UniProt P56726, W539L); assay: Mouse assay: Gli1 qPCR in MEF cells stably expressing mouse SMO W535L; settings: mSHh-treated, 24 hours; for IC50: Gli1 inhibition by qPCR, read-out: Mouse W535L pIC50 (converted); for Mouse W535L % Inh: percentage Gli1 inhibition
T1 construct: expressed in transfected cells
T1 sequence (P56726 33-793 W539L): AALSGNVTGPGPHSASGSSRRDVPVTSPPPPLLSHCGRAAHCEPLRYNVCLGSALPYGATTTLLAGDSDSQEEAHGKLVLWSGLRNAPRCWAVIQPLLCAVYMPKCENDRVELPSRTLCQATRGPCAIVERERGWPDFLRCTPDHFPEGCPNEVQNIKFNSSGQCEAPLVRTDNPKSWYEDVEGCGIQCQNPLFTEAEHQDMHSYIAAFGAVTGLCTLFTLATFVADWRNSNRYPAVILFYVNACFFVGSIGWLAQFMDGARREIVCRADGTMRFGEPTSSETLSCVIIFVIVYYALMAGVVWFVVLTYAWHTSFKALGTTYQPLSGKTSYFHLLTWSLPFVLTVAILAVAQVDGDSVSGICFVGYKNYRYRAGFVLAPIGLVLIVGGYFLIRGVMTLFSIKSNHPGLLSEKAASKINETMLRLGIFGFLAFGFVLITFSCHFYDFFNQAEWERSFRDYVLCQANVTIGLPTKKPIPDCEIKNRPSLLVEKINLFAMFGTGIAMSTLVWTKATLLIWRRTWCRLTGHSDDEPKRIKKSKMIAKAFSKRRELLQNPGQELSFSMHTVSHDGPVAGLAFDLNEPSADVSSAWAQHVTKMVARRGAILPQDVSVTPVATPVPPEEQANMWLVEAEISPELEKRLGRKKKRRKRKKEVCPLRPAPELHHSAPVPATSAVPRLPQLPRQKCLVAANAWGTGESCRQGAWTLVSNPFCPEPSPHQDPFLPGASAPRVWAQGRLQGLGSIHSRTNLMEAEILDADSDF
Outline: (§1)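 MEFs stably expressing the SMO variant pre-treated with compound 1 h, then stimulated with mSHh and incubated 24 h at 37 °C. Gli1 mRNA quantified by one-step TaqMan qPCR with Gusb reference, four replicates per concentration; expressed as % Gli1 inhibition relative to mSHh-treated controls.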

mouse SMO^WT = target: T2, mouse SMO^WT (Mus musculus, UniProt P56726); assay: Mouse assay: Gli1 qPCR in MEF cells stably expressing mouse SMO WT; settings: mSHh-treated, 24 hours; for IC50: Gli1 inhibition by qPCR, read-out: Mouse WT pIC50 (converted); for Mouse WT % Inh: percentage Gli1 inhibition
T2 construct: expressed in transfected cells
T2 sequence (P56726 33-793): as the sequence (P56726 33-793 W539L) above, with L507W counted along it
Outline: as §1

human SMO D473H = target: T3, human SMO D473H (Homo sapiens, UniProt Q99835, D473H); assay: Human assay: Gli1 qPCR in MEF SMO-/- cells BacMam-transduced with hSMO D473H variant; settings: mSHh-treated, 24 hours; for IC50: Gli1 inhibition by qPCR, read-out: Human D473H pIC50 (converted); for Human D473H % Inh: percentage Gli1 inhibition
T3 construct: expressed in transfected cells; host or cells: SMO knock-out mouse embryonic fibroblasts (MEF SMO-/-), BacMam transduction
T3 sequence (Q99835 28-787 D473H): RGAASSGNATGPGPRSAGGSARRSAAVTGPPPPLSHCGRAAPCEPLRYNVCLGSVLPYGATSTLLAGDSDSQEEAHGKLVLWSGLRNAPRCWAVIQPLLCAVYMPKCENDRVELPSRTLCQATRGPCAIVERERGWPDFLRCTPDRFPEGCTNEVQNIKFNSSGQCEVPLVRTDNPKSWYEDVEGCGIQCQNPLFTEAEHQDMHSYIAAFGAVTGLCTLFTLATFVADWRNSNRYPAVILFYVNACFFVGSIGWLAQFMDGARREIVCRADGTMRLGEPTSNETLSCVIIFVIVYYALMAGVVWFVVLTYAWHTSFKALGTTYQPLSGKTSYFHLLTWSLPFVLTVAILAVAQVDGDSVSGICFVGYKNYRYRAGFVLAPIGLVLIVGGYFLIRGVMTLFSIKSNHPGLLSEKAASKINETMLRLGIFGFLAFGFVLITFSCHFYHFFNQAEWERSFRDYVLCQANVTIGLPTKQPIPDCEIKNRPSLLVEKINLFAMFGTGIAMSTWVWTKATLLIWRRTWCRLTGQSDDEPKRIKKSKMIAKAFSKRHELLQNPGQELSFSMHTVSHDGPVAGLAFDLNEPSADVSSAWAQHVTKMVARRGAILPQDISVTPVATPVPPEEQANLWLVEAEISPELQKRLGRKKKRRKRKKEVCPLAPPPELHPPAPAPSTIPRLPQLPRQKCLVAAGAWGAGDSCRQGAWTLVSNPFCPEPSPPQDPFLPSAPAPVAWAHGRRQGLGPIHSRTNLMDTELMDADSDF
Method: Cell culture. All materials were purchased from Sigma-Aldrich, unless otherwise stated.
(§2) BacMam transduction and compound treatment. MEF^SMO−/− cells were transduced with BacMam virus (MOI 1:10 in the presence of 4.2 mM valproic acid) containing either the hSMO WT or desired receptor variant sequence. Transduced cells were seeded at 6000 cells per well in a Poly-D-Lysine coated 384-well plate (Greiner) before the spent culture medium was removed on the following day and replaced with assay medium (OptiMEM (Gibco) supplemented with 50 U/mL penicillin and 5 mg/mL streptomycin (supplied as a mixture), 0.1 mMMEM Non-Essential Amino Acids (supplied as 100× solution, ThermoFisher), 1 mM sodium pyruvate and 10 mM HEPES) containing test compounds at 2.5× final assay concentrations.
(§3) Cell lysis and one-step qPCR. The Cells-to-CT™ 1-Step TaqMan® Kit was used in conjunction with TaqMan primer-probe assays for the detection of Gill (FAM, Mm00494654_m1) and Gusb (VIC, Mm01197698_m1) genes (all purchased from Life Technologies). Following 24 hours cell treatment, spent medium was removed and cells were washed with PBS before the application of lysis and stop solution as per manufacturer's instructions. The qPCR reactions were run in a 384-well PCR plate using master mix prepared according to manufacturer's instructions and cell lysate samples from treatment wells. Real-time PCR amplification was detected using the Bio-Rad CFX384 Touch PCR system. Four experimental replicates (two cell replicates and two qPCR replicates) were performed for each compound concentration tested. Real-time data were analysed using the CFX Maestro software (Bio-Rad) and obtained expression values were converted to percentage Gill inhibition by normalising to the average Gill expression of mSHh-treated control samples

mouse SMO^D473H = target: T4, mouse SMO^D473H (Mus musculus, UniProt P56726, D477H); assay: Mouse assay: Gli1 qPCR in MEF cells stably expressing mouse SMO D473H; settings: mSHh-treated, 24 hours; for IC50: Gli1 inhibition by qPCR, read-out: Mouse D473H pIC50 (converted); for Mouse D473H % Inh: percentage Gli1 inhibition
T4 construct: expressed in transfected cells
T4 sequence (P56726 33-793 D477H): as the sequence (P56726 33-793 W539L) above, with D445H, L507W counted along it
Outline: as §1

human SMO W535L = target: T5, human SMO W535L (Homo sapiens, UniProt Q99835, W535L); assay: Human assay: Gli1 qPCR in MEF SMO-/- cells BacMam-transduced with hSMO W535L variant; settings: mSHh-treated, 24 hours; for IC50: Gli1 inhibition by qPCR, read-out: Human W535L pIC50 (converted); for Human W535L % Inh: percentage Gli1 inhibition
T5 construct: expressed in transfected cells; host or cells: SMO knock-out mouse embryonic fibroblasts (MEF SMO-/-), BacMam transduction
T5 sequence (Q99835 28-787 W535L): as the sequence (Q99835 28-787 D473H) above, with H446D, W508L counted along it
Method: (§4) Cell culture. All materials were purchased from Sigma-Aldrich, unless otherwise stated. SMO knock-out mouse embryonic fibroblasts (MEF^SMO−/−) were maintained in Dulbecco's modified Eagle's medium (DMEM)/high-glucose medium supplemented with 10% foetal bovine serum (FBS, Invitrogen), 50 U/mL penicillin and 5 mg/mL streptomycin (supplied as a mixture), 0.1 mMMEM Non-Essential Amino Acids (supplied as 100× solution, ThermoFisher) and 1 mM sodium pyruvate at 37° C. in a humidified 95% air/5% CO2 atmosphere.
as §2, with “concentrations. After 1 hour incubation, cells were treated with assay medium containing mSHh prepared at 2.5× of final assay concentrations specified in the text and incubated for a further 24 hours at 37° C. in a humidified 95% air/5% […] atmosphere prior to qPCR analysis.” for “concentrations.”
as §3

hSMO WT = target: T6, hSMO WT (Homo sapiens, UniProt Q99835); assay: Human assay: Gli1 qPCR in MEF SMO-/- cells BacMam-transduced with hSMO WT; settings: mSHh-treated, 24 hours; for IC50: Gli1 inhibition by qPCR, read-out: Human WT pIC50 (converted); for Human WT % Inh: percentage Gli1 inhibition
T6 construct: expressed in transfected cells; host or cells: SMO knock-out mouse embryonic fibroblasts (MEF SMO-/-), BacMam transduction
T6 sequence (Q99835 28-787): as the sequence (Q99835 28-787 D473H) above, with H446D counted along it
Method: as §4
as §2, with “concentrations. After 1 hour incubation, cells were treated with assay medium containing mSHh prepared at 2.5× of final assay concentrations specified in the text and incubated for a further 24 hours at 37° C. in a humidified 95% air/5% […] atmosphere prior to qPCR analysis.” for “concentrations.”
as §3

Row | Compound | IC50 (mouse SMO^W535L) | Mouse W535L % Inh (mouse SMO^W535L) | IC50 (mouse SMO^WT) | Mouse WT % Inh (mouse SMO^WT) | IC50 (human SMO D473H) | Human D473H % Inh (human SMO D473H) | IC50 (mouse SMO^D473H) | Mouse D473H % Inh (mouse SMO^D473H) | IC50 (human SMO W535L) | Human W535L % Inh (human SMO W535L) | IC50 (hSMO WT) | Human WT % Inh (hSMO WT)
1 | CC1CN(Cc2cccc(C(=O)Nc3ccc(-c4nc(C5CC5)n[nH]4)cc3)c2)CCS1(=O)=O (stereo not shown) [Example 1-2, N-[4-(3-Cyclopropyl-1H-1,2,4-triazol-5-yl)phenyl]-3-[(2-methyl-1,1-dioxo-1,4-thiazinan-4-yl)methyl]benzamide] | 200 nM | 63.3% | 15.8 nM | 97.3% | 200 nM | 85% | 126 nM | 95.6% | 20 nM | 78.2% |  | 
2 | O=C(Nc1ccc(-c2nc(C3CC3)n[nH]2)cc1)c1cc(F)cc(CN2CCS(=O)(=O)CC2)c1 [Example 2-2, N-[4-(5-Cyclopropyl-1H-1,2,4-triazol-3-yl)phenyl]-3-[(1,1-dioxo-1,4-thiazinan-4-yl)methyl]-5-fluorobenzamide] | 126 nM | 67.2% | 10 nM | 95.8% | 794 nM | 73.6% | 126 nM | 91.3% | 7.94 nM | 79.1% |  | 
3 | O=C(Nc1ccc(-c2nc(C3CC3)n[nH]2)cc1)c1cc(Cl)cc(CN2CCS(=O)(=O)CC2)c1 [Example 2-4, 3-Chloro-N-[4-(5-cyclopropyl-1H-1,2,4-triazol-3-yl)phenyl]-5-[(1,1-dioxo-1,4-thiazinan-4-yl)methyl]benzamide] | 39.8 nM | 60.2% | 5.01 nM | 95.4% | 631 nM | 76.5% | 39.8 nM | 95.4% | 5.01 nM | 87.8% |  | 
4 | O=C(Nc1ccc(-c2nc(C3CC3)n[nH]2)cc1)c1cccc(CN2CCS(=O)(=O)CC2)c1 [Example 3-3, N-[4-(3-Cyclopropyl-1H-1,2,4-triazol-5-yl)phenyl]-3-[(1,1-dioxo-1,4-thiazinan-4-yl)methyl]benzamide] | 158 nM | 61.9% | 15.8 nM | 96.6% | 1260 nM | 77.2% | 158 nM | 89.9% | 100 nM | 88.4% | 31.6 nM | 85.9%
5 | O=C(Nc1ccc(-c2nc(C3CCCC3)n[nH]2)cc1)c1cccc(CN2CCS(=O)(=O)CC2)c1 [Example 3-5, N-[4-(3-Cyclopentyl-1H-1,2,4-triazol-5-yl)phenyl]-3-[(1,1-dioxo-1,4-thiazinan-4-yl)methyl]benzamide] | 15.8 nM | 42.2% | 10 nM | 96.6% | 251 nM | 88.3% | 50.1 nM | 96.7% | 2.51 nM | 75.4% | 2 nM | 83.4%
6 | O=C(Nc1ccc(-c2nc(Cc3ccc(Br)cc3)n[nH]2)cc1)c1cccc(CN2CCS(=O)(=O)CC2)c1 [Example 3-24, N-[4-[3-[(4-bromophenyl)methy]-1H-1,2,4-triazol-5-yl]phenyl]-3-[(1,1-dioxo-1,4-thiazinan-4-yl)methyl]benzamide] | 39.8 nM | 72.5% | 3.98 nM | 98.8% | 25.1 nM | 104% | 50.1 nM | 98.5% | 25.1 nM | 98.5% | 6.31 nM | 94%
7 | Cc1oc(-c2ccc(NC(=O)c3cccc(CN4CCS(=O)(=O)CC4)c3)cc2)nc1C1CC1 [Example 4-2, N-[4-(4-Cyclopropyl-5-methyl-1,3-oxazol-2-yl)phenyl]-3-[(1,1-dioxo-1,4-thiazinan-4-yl)methyl]benzamide] | 15.8 nM | 75.3% | 0.631 nM | 97.5% | 31.6 nM | 104.2% | 2.51 nM | 98.4% | 25.1 nM | 104.6% | 0.501 nM | 97.8%
8 | Cc1oc(-c2ccc(NC(=O)c3ccc(F)c(CN4CCS(=O)(=O)CC4)c3)cc2)nc1C1CC1 [Example 4-3, N-[4-(4-Cyclopropyl-5-methyl-1,3-oxazol-2-yl)phenyl]-3-[(1,1-dioxo-1,4-thiazinan-4-yl)methyl]-4-fluorobenzamide] | 10 nM | 71.9% | 0.2 nM | 97.1% | 25.1 nM | 103.2% | 2 nM | 97.4% | 12.6 nM | 95.6% | 0.316 nM | 93.6%
9 | Cc1oc(-c2ccc(NC(=O)c3ccc(Cl)c(CN4CCS(=O)(=O)CC4)c3)cn2)nc1C1CC1 [Example 5-2, 4-Chloro-N-[6-(4-cyclopropyl-5-methyl-1,3-oxazol-2-yl)pyridin-3-yl]-3-[(1,1-dioxo-1,4-thiazinan-4-yl)methyl]benzamide] | 63.1 nM | 82.7% | 2 nM | 98.8% |  |  | 7.94 nM | 98.1% |  |  |  | 
10 | Cn1nc(-c2ccc(NC(=O)c3cccc(CN4CCS(=O)(=O)CC4)c3)cn2)cc1C1CC1 [Example 5-4, N-[6-(5-Cyclopropyl-1-methylpyrazol-3-yl)pyridin-3-yl]-3-[(1,1-dioxo-1,4-thiazinan-4-yl)methyl]benzamide] | 251 nM | 66.4% | 7.94 nM | 97.3% | 794 nM | 107.7% | 126 nM | 97.0% | 39.8 nM | 85.9% |  | 
11 | Cn1nc(-c2ccc(NC(=O)c3cccc(CN4CCS(=O)(=O)CC4)c3)nc2)cc1C1CC1 [Example 5-5, N-[5-(5-cyclopropyl-1-methylpyrazol-3-yl)pyridin-2-yl]-3-[(1,1-dioxo-1,4-thiazinan-4-yl)methyl]benzamide] | 631 nM | 61.1% | 31.6 nM | 97.7% |  |  | 100 nM | 93.2% |  |  |  | 
12 | CS(=O)(=O)c1ccc(C(=O)Nc2ccc(Cl)c(-c3ccccn3)c2)c(Cl)c1 [Vismodegib, reference compound] |  |  |  |  |  | 45.4% |  |  |  | 92.6% |  | 100.1%
